Measured values taken from US20050059641A1, “Compositions and methods for treating and preventing cancer using analogs of vitamin D” (Aphios Corporation, priority 2003, published 2005).
Entries after “also recorded” stand apart in the source; their conditions may differ.

Biological target: vitamin D receptor, VDR (Homo sapiens, UniProt P11473)
Experiment: cross-linking (affinity labeling) of the hormone-binding pocket of VDR
Settings: FIG. 13
Description: The present invention is directed, in part, to novel analogs of 1,25(OH)2D3, for example, 1,25(OH)2D3-3-BE and 25(OH)2D3-3-BE. The inventors have developed a novel affinity alkylating analog of 1,25(OH)2D3 which cross links 1,25(OH)2D3 to the hormone-binding pocket of VDR via a nucleophilic displacement reaction between a Cys residue in the hormone-binding pocket (Cys288) and a reactive bromoacetate group at the 3-position of 1,25(OH)2D3 (Ray R, Ray S., and Holick M. F. 1″,25-dihydroxyvitamin D3-3-deoxy-3$-bromoacetate, an affinity labeling analog of 1″,25-dihydroxyvitamin D3. (1994) Bioorg. Chem. 22 276-283; Ray R, Swamy N, MacDonald P N, Ray S, Haussler M R, and Holick M F. (1996) Affinity labeling of 1″,25-dihydroxyvitamin D3 receptor. J. Biol Chem 271 2012-2017; Swamy N, Kounine M, and Ray R. (1997) Identification of the subdomain in the nuclear receptor for the hormonal form of vitamin D3, 1″,25-dihydroxyvitamin D3, vitamin D receptor, that is covalently modified by an affinity labeling reagent. Arch Biochem Biophys 348 91-95; Chen M L, Ray S, Swamy N, Holick M F, and Ray R. Mechanistic studies to evaluate the enhanced anti-proliferation of human keratinocytes by 1α,25-dihydroxyvitamin D3-3-bromoacetate, a covalent modifier of vitamin D receptor, compared to 1α,25-dihydroxyvitamin D3. (1999) Arch. Biochem. Biophys. […]

vitamin D receptor, VDR, sequence (P11473 whole entry): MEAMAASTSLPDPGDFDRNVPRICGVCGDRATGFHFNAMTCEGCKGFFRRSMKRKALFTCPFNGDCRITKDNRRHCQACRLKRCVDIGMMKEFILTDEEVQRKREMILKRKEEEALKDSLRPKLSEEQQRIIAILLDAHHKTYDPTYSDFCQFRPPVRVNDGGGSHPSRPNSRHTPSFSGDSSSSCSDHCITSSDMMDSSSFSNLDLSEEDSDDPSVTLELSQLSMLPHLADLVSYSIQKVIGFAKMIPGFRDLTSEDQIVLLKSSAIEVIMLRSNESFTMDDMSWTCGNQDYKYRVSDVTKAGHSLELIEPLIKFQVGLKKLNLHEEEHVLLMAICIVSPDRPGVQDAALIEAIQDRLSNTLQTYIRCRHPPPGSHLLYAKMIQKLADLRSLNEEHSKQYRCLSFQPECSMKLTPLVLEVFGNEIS

In the case of C=C1CCC(OC(=O)CBr)CC1=CC=C1CCCC2(C)C1CCC2C(C)CCCC(C)(C)O (stereo not shown) [25-OH-D3-3-BE, 25-hydroxyvitamin D3-3-bromoacetate], the “cross-linking (labeling) of the hormone-binding pocket of VDR” value is reported as “specifically cross-links to the hormone binding pocket of VDR; also recorded: specifically labels the hormone-binding pocket of VDR”.
